One may read the IC50 as the concentration that inhibits the measured activity by half.

Each structure is given as a SMILES string. Non-standard residues stand in square brackets, D forms with d. Residues, ends and D or L forms follow the SMILES beside them. Cha = N[C@@H](CC1CCCCC1)C(=O)O; Nle = CCCC[C@H](N)C(=O)O; Dap = NC[C@H](N)C(=O)O; Ahp = NCCCCCCC(=O)O; Ahx = NCCCCCC(=O)O; Ava = NCCCCC(=O)O

In US9073975B2, “Cyclic peptides, their preparation and their use as inhibitors of the platelet adhesion” (SANOFI, priority 2010, dated 2015) one finds IC50 data, which are given here for 8 compounds.

This assay addresses T1, recombinant human vWF-A1 domain (Homo sapiens, UniProt P07359).
T1 construct: whole blood drawn from voluntary donors; made in house; host or cells: E. coli (vWF-A1); washed platelets from human donor blood (GPIb, endogenous)
Briefly: Static human platelet adhesion to recombinant human vWF-A1 domain. The format is cell-based. To be noted: washed calcein AM labeled human platelets, static conditions, 1.5 h adhesion; read-out: Activity (IC50 for inhibition of the binding of platelets to vWF A1 domain). The protocol: The activity of compounds of the formula I can be shown by procedures known in the art, for example by determining their inhibition of the binding of platelets to vWF A1 domain in an appropriate assay. To this end, assay plates can be coated with vWF-A1 domain. […] Then fluorescence-labeled thrombocytes are added and incubated for 90 minutes. In a complex washing procedure all non-bound thrombocytes are removed and the plates are measured, for example in a laser-based reader Acumen Explorer or a bulk reader like Spectramax. […] To assess the effect of compounds on the interaction of the GPIb complex on platelets with vWF, an assay system was used measuring binding of human platelets to recombinant human vWF-A1 domain under static conditions in the presence and absence of the compounds. […] Platelet rich plasma was carefully removed, transferred to a fresh container and spun down for 15 min at 120 g. Platelet rich plasma was carefully transferred again to fresh containers, PGE1 (0.5 μg/ml, Sigma) was added and the suspension was allowed to rest for 5 min. This was followed by another centrifugation step for 15 min at 360 g. The supernatant was discarded and the cell pellets were carefully resuspended in tyrode buffer (NaCl, 137 mM (Sigma S-3014); KCl, 2.7 mM (Sigma P-9541); NaHCO3,12 mM ([…] 31437); NaH2PO4×2H2O, 0.36 mM (Merck 6345); […] After 5 min of resting the suspension was spun down for 15 min at 300 g. The supernatant was discarded and the pellets were carefully resuspended in TBS buffer (Tris-HCl, 50 mM (Fluka 93371); NaCl, 120 mM (Sigma S-3014); KCl, 2.7 mM (Sigma P-9541); CaCl2, 0.05 mM (Sigma C-3306); MgCl2×6 H2O, 2 mM (Sigma M-2670); […] The platelet count was adjusted to 2×10^5 cells/μl, and the suspensions from individual donors were pooled at this stage. The platelets were allowed to rest for 30 min at room temperature before calcein AM (2.5 μM per 2×10^5 cells/μl (Molecular Probes C-3099)) was added. This was followed by 15 min incubation in the dark. Cells were diluted to 5×10^4 cells/μl and ReoPro (3 μg/ml (Centocor B. V., Leiden, N L)) was added, followed by a 10 min incubation period in the dark before adding the platelets to the assay plates. 96 well plates (Greiner hb, black, clear bottom, F, 655097) were coated with human recombinant vWF-A1 domain (1.5 μg/well, AA 475-706, expressed in E. coli) in Tris buffer (pH 7.4; Tris-HCl, 25 mM; NaCl, 150 mM) and incubated for 1 h at room temperature. After washing the wells 3× with TBS, blocking buffer (TBS with 5% BSA) was added followed by an incubation for 1 h. The wells were washed again 3× with TBS before 200 μl TBS were added to each well, preventing them from drying out. TBS was flicked out and serial dilutions of the test compound were added. The washed and calcein AM labeled thrombocytes were added to the wells (2.5×10^6 cells/well). Following an adhesion period of 1.5 h in the dark the wells were washed 3× with TBS. Measurement of fluorescence per well was performed in a SpectraMax M5 reader (Molecular Devices). From the raw data % inhibition and IC50 values were calculated.

T1 sequence (P07359 17-652): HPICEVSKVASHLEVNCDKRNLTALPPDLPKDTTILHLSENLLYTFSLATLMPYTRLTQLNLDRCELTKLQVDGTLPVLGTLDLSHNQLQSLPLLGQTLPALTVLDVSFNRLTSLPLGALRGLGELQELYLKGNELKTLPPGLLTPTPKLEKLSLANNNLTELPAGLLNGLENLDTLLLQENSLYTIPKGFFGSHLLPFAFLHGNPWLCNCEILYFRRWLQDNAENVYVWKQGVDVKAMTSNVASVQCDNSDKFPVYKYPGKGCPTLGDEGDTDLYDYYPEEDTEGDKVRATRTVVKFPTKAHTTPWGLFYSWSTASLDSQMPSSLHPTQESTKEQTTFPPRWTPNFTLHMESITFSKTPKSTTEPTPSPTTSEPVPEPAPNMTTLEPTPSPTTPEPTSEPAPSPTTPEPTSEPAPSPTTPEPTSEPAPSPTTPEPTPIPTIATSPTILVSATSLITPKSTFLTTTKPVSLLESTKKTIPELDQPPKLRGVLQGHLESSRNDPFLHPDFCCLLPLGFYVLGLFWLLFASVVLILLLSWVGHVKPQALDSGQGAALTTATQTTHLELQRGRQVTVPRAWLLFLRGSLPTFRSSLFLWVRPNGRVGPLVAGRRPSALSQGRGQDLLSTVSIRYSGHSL
T1 sequence (P13224 26-206 partner): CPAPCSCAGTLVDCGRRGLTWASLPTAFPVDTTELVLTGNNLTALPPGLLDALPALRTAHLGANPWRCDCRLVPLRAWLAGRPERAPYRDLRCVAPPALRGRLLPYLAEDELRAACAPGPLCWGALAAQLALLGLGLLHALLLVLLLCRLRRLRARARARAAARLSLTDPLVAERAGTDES
T1 sequence (P14770 17-177 partner): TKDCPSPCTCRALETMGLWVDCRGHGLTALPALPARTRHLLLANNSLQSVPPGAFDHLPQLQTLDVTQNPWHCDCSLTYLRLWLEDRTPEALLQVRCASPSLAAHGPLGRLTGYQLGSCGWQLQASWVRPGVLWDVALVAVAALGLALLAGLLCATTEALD

As to `CC(C)C[C@@H]1NC(=O)[C@H](C)NC(=O)[C@H](CC(C)C)NC(=O)[C@H](CCCNC(=N)N)NC(=O)[C@H](CCC(=O)O)NC(=O)[C@H]([C@@H](C)O)NC(=O)CCCCCCNC(=O)[C@H](CC(C)C)NC(=O)[C@H](CC(N)=O)NC(=O)[C@H](Cc2c[nH]cn2)NC1=O` [Example 38, Cyclo[Leu-His-Asn-Leu-NH—(CH2)6—CO-Thr-Glu-Arg-Leu-Ala]] (cyclo(ALHNL[Ahp]TERL)), the IC50 is under 1000 nM.

For `CSCC[C@@H]1NC(=O)[C@H](CN)NC(=O)[C@H](CCC(=O)O)NC(=O)[C@H]([C@@H](C)O)NC(=O)CCCCCCNC(=O)[C@H](CC(C)C)NC(=O)[C@H](CC(N)=O)NC(=O)[C@H](Cc2c[nH]cn2)NC(=O)[C@H](CC(C)C)NC(=O)[C@H](C)NC1=O` [Example 29, Cyclo[Leu-His-Asn-Leu-NH—(CH2)6—CO-Thr-Glu-Dpr-Met-Ala]] (cyclo(ALHNL[Ahp]TE[Dap]M)), the IC50 was 1000 to 10000 nM.

Take `CCCC[C@@H]1NC(=O)[C@H](C)NC(=O)[C@H](CCSC)NC(=O)[C@H](CCCNC(=N)N)NC(=O)[C@H](CCC(=O)O)NC(=O)[C@H]([C@@H](C)O)NC(=O)CCCCCCNC(=O)[C@H](CC(C)C)NC(=O)[C@H](CC(N)=O)NC(=O)[C@H](Cc2c[nH]cn2)NC1=O` [Example 13, Cyclo[Nle-His-Asn-Leu-NH—(CH2)6—CO-Thr-Glu-Arg-Met-Ala]] (cyclo(A[Nle]HNL[Ahp]TERM)): the IC50 is 1000 to 10000 nM.

Consider `CSCC[C@@H]1NC(=O)[C@H](CCCNC(=N)N)NC(=O)[C@H](CCC(=O)O)NC(=O)[C@H]([C@@H](C)O)NC(=O)CCCCCCNC(=O)[C@H](CC(C)C)NC(=O)[C@H](CC(N)=O)NC(=O)[C@H](Cc2c[nH]cn2)NC(=O)[C@H](CC2CCCCC2)NC(=O)[C@H](C)NC1=O` [Example 16, Cyclo[Cha-His-Asn-Leu-NH—(CH2)6—CO-Thr-Glu-Arg-Met-Ala]] (cyclo([Cha]HNL[Ahp]TERMA)), for which the IC50 is under 1000 nM.

With `CSCC[C@@H]1NC(=O)[C@H](CCCNC(=N)N)NC(=O)[C@H](CCC(=O)O)NC(=O)[C@H]([C@@H](C)O)NC(=O)CCCCCCNC(=O)[C@H](CC(C)C)NC(=O)[C@H](CC(N)=O)NC(=O)[C@@H](Cc2c[nH]cn2)NC(=O)[C@H](CC(C)C)NC(=O)[C@H](C)NC1=O` [Example 33, Cyclo[Leu-D-His-Asn-Leu-NH—(CH2)6—CO-Thr-Glu-Arg-Met-Ala]] (cyclo(AL[dH]NL[Ahp]TERM)), the IC50 is 1000 to 10000 nM.

On to `CSCC[C@@H]1NC(=O)[C@H](CCCNC(=N)N)NC(=O)[C@H](CCC(=O)O)NC(=O)[C@H]([C@@H](C)O)NC(=O)CCCCNC(=O)CNC(=O)[C@H](CC(C)C)NC(=O)[C@H](CC(N)=O)NC(=O)[C@H](Cc2c[nH]cn2)NC(=O)[C@H](CC(C)C)NC(=O)[C@H](C)NC1=O` [Example 46, Cyclo[Leu-His-Asn-Leu-Gly-NH—(CH2)4—CO-Thr-Glu-Arg-Met-Ala]] (cyclo(ALHNLG[Ava]TERM)), for which the IC50 was 1000 to 10000 nM.

On to `CSCC[C@@H]1NC(=O)[C@H](CCCNC(=N)N)NC(=O)[C@H](CCC(=O)O)NC(=O)[C@H]([C@@H](C)O)NC(=O)CCCCCNC(=O)[C@H](CC(C)C)NC(=O)[C@H](CC(N)=O)NC(=O)[C@H](Cc2c[nH]cn2)NC(=O)[C@H](CC(C)C)NC(=O)[C@H](C)NC1=O` [Example 11, Cyclo[Leu-His-Asn-Leu-NH—(CH2)5—CO-Thr-Glu-Arg-Met-Ala]] (cyclo(ALHNL[Ahx]TERM)), for which the IC50 was 1000 to 10000 nM.

In the case of `CSCC[C@@H]1NC(=O)[C@H](CCCNC(=N)N)NC(=O)[C@H](CCC(=O)O)NC(=O)[C@H](CC(=O)O)NC(=O)CCCCCCNC(=O)[C@H](CC(C)C)NC(=O)[C@H](CC(N)=O)NC(=O)[C@H](Cc2c[nH]cn2)NC(=O)[C@H](CC(C)C)NC(=O)[C@H](C)NC1=O` [Example 10, Cyclo[Leu-His-Asn-Leu-NH—(CH2)6—CO-Asp-Glu-Arg-Met-Ala]] (cyclo(ALHNL[Ahp]DERM)), the IC50 is 1000 to 10000 nM.
